We go through five compounds from patent US7795242B2, “Methods and compositions for immunomodulation” (The Brigham and Women's Hospital, Inc., priority 2003, dated 2010).

For assay [1], the system named is IL1AP T cells. The experiment in a line: Proliferative response of IL1AP T cells stimulated with antigen and dendritic cells ([3H]-thymidine incorporation). Particulars: for stimulation (proliferation) of IL1AP T cells: DC as APC, FIG. 1A, 2B, 6E, 7A. It is filed as cell-based, human. On the procedure:
The antigens provided herein were identified with T-cell activation assays performed using purified fractions in order to determine their relative ability to activate T-cells. These assays were carried out essentially as described in U.S. Pat. Nos. 5,679,347; 5,853,737; and 6,238,676, and in Rosat et al. J. Immunol. 162:366-371, 1999. Other procedures are well-known in the art.
To generate CD1-restricted T cells that recognize novel antigens, we stimulated human peripheral blood lymphocytes using a method that reduces the outgrowth of MHC-restricted T cells and favors the detection of CD1-restricted T cells. This involves the repeated stimulation of lymphocytes with lipid antigens with monocyte-derived dendritic cells (DC) from donors that differ in their MHC protein expression, so that T cells responding to DC with a given MHC class I or II molecule will not be repeatedly stimulated and therefore […] in T cell lines produced after many rounds of stimulation. DCs were prepared from the peripheral blood of healthy donors by centrifugation over Ficoll-Hypaque, adherence of the mononuclear cells to plastic tissue culture flasks, culture of adherent cells with 300 U/ml GM-CSF and 200 U/ml IL-4 for 3 days, followed by irradiation (3300 R).
DC and T cells were cultured at a 1:5 ratio in the presence of 1 μg/ml LKKRRL mixture to yield T cell lines. T cells lines were used to generate clones by culturing T cells at approximately 1 cell per well with phytohemagglutinin, peripheral blood mononuclear cells, transformed B cell lines and 2 nM IL-2. This protocol yielded a polyclonal T cell line IL1AP and several clones derived there from, which are named IL1AP.15, IL1AP.31.
To assay the proliferative responses of IL1AP T cells, 5*10^4 Polyclonal IL1AP T cells were stimulated with 3*10^4 DC and LKKRRL mixture (FIG. 1A). […] C1R cells transfected with the vector pSRα-NEO, containing the cDNAs encoding human CD1a, CD1b, CD1c, CD1d, or no insert (C1R mock) were used as alternative APC for the stimulation of polyclonal T cells with LKKRRL mixture (FIG. 1C). […]
In general terms: Dividing cells build labelled thymidine or BrdU into new DNA.

The target of assay [2] is T1, CD1d (Homo sapiens, UniProt P15813). Description: Competition with αGalCer-mediated NK T cell activation on plate-bound recombinant CD1d. Particulars: FIG. 8; for block of αGalCer-mediated NK T activation: compound added in excess to plate-bound recombinant CD1d. It is filed as cell-based. The text has this: Next, to determine whether PPBF could compete with αGalCer-mediated NK T cell responses, we used an in vitro assay of PPBF added to recombinant CD1d proteins bound to a plate.

Assay [3] deals with T1, CD1d. To be noted: Im et al., J Biol Chem., 279:299-310, 2004; cited from earlier work.
Assay [4] deals with J.RT3.ABd cells. Description: IL-2 release by J.RT3 cells transfected with IL1AP TCR α and β chains (J.RT3.ABd). It is filed as cell-based. To be noted: FIG. 11A. As for the experimental part: We transfected the full-length TCR α and β chains from IL1AP cells into J.RT3 cells to generate a TCR-expressing reporter cell line (J.RT3.ABd). […] To determine whether PPBF could activate through intact CD3 complexes that were reconstituted by transfection of a TCR with irrelevant antigen specificity, J.RT3-T3.5 cells transfected with the TCR α and β chains of the CD8-2 cell line (J.RT3-CD8-2) that recognizes the mycobacterial lipopeptides DDM were tested for IL-2 release upon stimulation with DDM or PPBF.

The subject of assay [5] is T cell line IL1AP. The experiment in a line: IL-2 release by PPBF-reactive T cell line IL1AP with DC as APC (HT-2 bioassay). It is filed as cell-based, human. To be noted: IL-2 measured 24 h after stimulation; FIG. 7A. On the procedure: Because αGalCer was previously known to function as a potent activator of CD1d-restricted T cell clones known as NK T cells, we sought to determine whether PPBF-reactive T cells and αGalCer-reactive T cells cross react. The PPBF-reactive T cell line IL1AP and the αGalCer-reactive T cell clone J3N.5 were each stimulated with αGalCer and PPBF using DC as APC. IL-2 release was measured 24 h after stimulation. The IL-2 concentration in 50 μl of culture supernatants, harvested 24 hours after T cell stimulation, was determined by adding 10^4 IL-2 starved HT-2 cells in […] medium, and a 6 h pulse after a 24 h incubation.

In assay [6] the test system is polyclonal lymphocytes. Description: Proliferative response of polyclonal lymphocytes and T cell clones. It is filed as cell-based, human. To be noted: data not shown. On the procedure: To determine whether PPBF non-selectively activated polyclonal lymphocyte populations or selectively activated antigen-specific clones present at low precursor frequency in vivo, polyclonal lymphocytes were tested for their proliferative response to PPBF.

For the compound 3-methyl-PPBF, the “capacity to stimulate IL1AP T cell proliferation relative to PPBF” value in assay [1] (FIG. 6E) is “stimulated T cells more potently than PPBF”. For the same compound, in assay [2], the “degree and titer of inhibition of αGalCer-mediated NK T activation compared with 2,6-ANS” value is listed as “comparable to that of 2,6-anilonapthalene sulfonic acid”; the “block of αGalCer-mediated NK T activation” value is on record as “substantially block αGalCer-mediated NK T activation in a dose-dependent manner”.

For `O=S(=O)(O)c1ccc2cc(Nc3ccccc3)ccc2c1` [2,6-anilonapthalene sulfonic acid], in assay [3], the “binding to CD1d” value was “has been shown to bind CD1d”.

As to `Cc1c(C)c(S(=O)(=O)Oc2ccccc2)c(C)c2c1OC(C)(C)C2` [PPBF, phenyl-2,2,4,6,7-pentamethyldihydrobenzofuran-5-sulfonyl], the “stimulation (proliferation) of IL1AP T cells” value in assay [1] was “Only the T cell line IL1AP and clones derived therefrom were activated by PPBF”; in assay [1] (listed as Synthetic PPBF), “potently stimulate”. Moreover, the “degree and titer of inhibition of αGalCer-mediated NK T activation compared with 2,6-ANS” value in assay [2] is reported as “comparable to that of 2,6-anilonapthalene sulfonic acid”. Also, in assay [2], the “block of αGalCer-mediated NK T activation” value was “substantially block αGalCer-mediated NK T activation in a dose-dependent manner”. For the same compound, the “IL-2 production by J.RT3.ABd cells upon stimulation” value in assay [4] is recorded as “conferred the ability to produce IL-2 upon stimulation with PPBF”.

As for `CCCCCCCCCCCCCCCCCCCCCCCCCC(=O)N[C@@H](CO[C@H]1O[C@H](CO)[C@H](O)[C@H](O)[C@H]1O)[C@H](O)[C@H](O)CCCCCCCCCCCCCC` [αGalCer, α-galactosyl ceramide], in assay [5], the “recognition by IL1AP T cells (IL-2 release)” value is listed as “did not recognize αGalCer”.

With phytohemagglutinin [reference compound], the “activation of polyclonal T cells and T cell clones (proliferative response)” value in assay [6] is “activated by the mitogen phytohemagglutinin”.
